Test results reported in PubChem BioAssay (NCI).
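These data come from cells grown in 96-well plates and exposed to compound for 48 hours at five concentrations. The concentration for 50% growth inhibition is given as GI50. TGI is the concentration that stops growth completely.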

Assays:
Experiment in all cases: NCI-60 cell line screen, 48 h
[1] = system: 786-0 renal
[2] = system: A498 renal
[3] = system: A549 NSCLC
[4] = system: ACHN renal
[5] = system: BT-549 breast
[6] = system: CAKI-1 renal
[7] = system: CCRF-CEM leukemia
[8] = system: COLO 205 colon
[9] = system: DU-145 prostate
[10] = system: EKVX NSCLC
[11] = system: HCC-2998 colon
[12] = system: HCT-116 colon
[13] = system: HCT-15 colon
[14] = system: HL-60(TB) leukemia
[15] = system: HOP-62 NSCLC
[16] = system: HOP-92 NSCLC
[17] = system: HS 578T breast
[18] = system: HT29 colon
[19] = system: IGROV1 ovarian
[20] = system: K-562 leukemia
[21] = system: KM12 colon
[22] = system: LOX IMVI melanoma
[23] = system: M14 melanoma
[24] = system: MALME-3M melanoma
[25] = system: MCF7 breast
[26] = system: MDA-MB-231 breast
[27] = system: MDA-MB-435
[28] = system: MOLT-4 leukemia
[29] = system: NCI-H226 lung

O=C(CCCCCCCCC(=O)N/N=C\c1ccccc1O)N/N=C\c1ccccc1O gave a GI50 [1] of 334 nM, a TGI [1] of 1990 nM and a GI50 [2] of 3100 nM. For the same compound, the TGI [2] was 26900 nM, the GI50 [3] was 810 nM and the TGI [3] was greater than 25200 nM. For the same compound, the GI50 [4] was 235 nM, the TGI [4] was 20100 nM and the GI50 [5] was 982 nM. For the same compound, the TGI [5] was greater than 100000 nM, the GI50 [6] was 318 nM and the TGI [6] was 14900 nM. The GI50 [7] was 228 nM, the TGI [7] was 17400 nM and the GI50 [8] was 2630 nM. It also gave a TGI [8] greater than 35200 nM, a GI50 [9] of 579 nM and a TGI [9] of 15500 nM. For the same compound, the GI50 [10] was 1530 nM, the TGI [10] was greater than 69600 nM and the GI50 [11] was 2920 nM. For the same compound, the TGI [11] was greater than 100000 nM, the GI50 [12] was 459 nM and the TGI [12] was 15200 nM. For the same compound, the GI50 [13] was 298 nM, the TGI [13] was greater than 100000 nM and the GI50 [14] was 203 nM. For the same compound, the TGI [14] was 687 nM, the GI50 [15] was 418 nM and the TGI [15] was 4720 nM. It also gave a GI50 [16] of 216 nM, a TGI [16] of 889 nM and a GI50 [17] of 3550 nM. It also gave a TGI [17] of 41600 nM, a GI50 [18] of 4620 nM and a TGI [18] greater than 36600 nM. The GI50 [19] was 1730 nM, the TGI [19] was 54500 nM and the GI50 [20] was 398 nM. The TGI [20] was 27800 nM, the GI50 [21] was 785 nM and the TGI [21] was greater than 40300 nM. It also gave a GI50 [22] of 273 nM, a TGI [22] of 6070 nM and a GI50 [23] of 306 nM. For the same compound, the TGI [23] was 1780 nM, the GI50 [24] was 566 nM and the TGI [24] was 17700 nM. It also gave a GI50 [25] of 1990 nM, a TGI [25] greater than 100000 nM and a GI50 [26] of 225 nM. It also gave a TGI [26] of 32200 nM, a GI50 [27] of 704 nM and a TGI [27] greater than 100000 nM. For the same compound, the GI50 [28] was 338 nM, the TGI [28] was 7370 nM and the GI50 [29] was 490 nM. It also gave a TGI [29] of 11000 nM.
